Test results: US20060074103A1, “Cyclic beta-amino acid derivatives as factor Xa inhibitors” (priority 2004, published 2006)

`O=C(N[C@H]1CCCC[C@@H]1C(=O)Nc1ccc(Cl)cn1)c1ccc(-n2ccccc2=O)cc1` [Example 1] showed a melting point of 301 to 303 °C.
